Converted amounts (≈) assume the structure as drawn.
Columns and labels:
[1] = test system: PC3 human prostate cancer cells; test: Example S: in vitro anticancer screen, PC-3 cells, Wst1; type: cell-based; conditions: Homo sapiens, PC-3, approximately 20 hours, Wst1, read-out: PC-3, percent of cancer cell survival relative to vehicle treated cells
In short: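 Values give percent survival relative to vehicle, read by Wst1 absorbance (450/630 nm) after 2 h dye incubation, in triplicate. Cells were seeded at 2×10^4/well and treated about 20 h with compound at 0.4, 0.5 or 2.5 μM, depending on compound.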

[2] = test system: 4T1 murine breast cancer cells; test: Example S: in vitro anticancer screen, 4T1 cells, Wst1; type: cell-based, mouse; conditions: Mus musculus, 4T1, 18 h, 18 hr, Wst1; for viability at 1 µM: read-out: 4T1 1 μM, percent of cancer cell survival relative to vehicle treated cells; for viability at 5 µM: read-out: 4T1 5 μM, percent of cancer cell survival relative to vehicle treated cells
In short: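 Read-out is Wst1 absorbance (450 nm, reference 630 nm) after roughly 2 hr dye incubation, giving percent cell survival versus vehicle. Before that, compounds at 1 μM or 5 μM were applied for 18 hr to 4T1 cells plated at 1×10^4 per well.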

[3] = test system: Candida albicans strain 3153; test: Example H: Candida albicans growth inhibition (OD 600 nm); type: cell-based; conditions: for MIC: Candida albicans, 3153, 24 hrs at 30° C., YPD, XLfit, read-out: MIC (uM) (99% of inhibition of fungal growth); for IC50: Candida albicans, 3153, read-out: IC50 (uM) (50% inhibition of fungal growth), 24 hrs at 30° C., YPD, XLfit
Experimental: A single colony of Candida Albicans was grown in 50 ml YPD broth overnight (19 hr). The cells were washed with PBS and 3.5×10^4 CFU/ml of C. Albicans (144 μl/well) in YPD medium were plated in 96 well plates. Test compounds were then added to each well with concentration ranged from 5 to 40 μM as final concentrations. The plates were incubated at 30° C. overnight (24 hrs) and OD at 600 nm was read at the end of incubation as an index of yeast cell density.
Part-I: Preparation of Candida albicans Cells • 1. One day prior to the inoculum preparation, pick a single colony of Candida albicans strain 3153 (lot #61794) from the Sabouraud Dextrose Agar plate using the inoculum loop and inoculate into a 250 mL flask containing 50 ml of YPD growth medium • 2. Incubate at 30° C. with shaking at 150 rpm for at least 18 hours with loosened lid to allow air in and facilitate growth. • 3. Examine an aliquot of the culture under a microscope for Candida cell morphology and lack of bacterial contamination; >95% of Candida cells should be blastoconidia. • 4. Transfer 25 ml the overnight culture into a 50-ml plastic disposable centrifuge tube, and centrifuge at 1000×g for 20 min. • 5. Discard the supernatant and wash the pellet with 4 ml of PBS at three times. Vortex and centrifuge, 1000×g for 10 min. • 6. After the third wash, dispense the pellet with 2 ml PBS and vortex. • 7. Make three 1:10 serial dilutions in sterile PBS (10^−1, 10^−2, 10^−3) from the 2 ml cell suspension using 15 ml culture tubes. The final volume in each tube is 5 ml. • 8. […] Make a 1:4 dilution in YPD medium from the 50-fold dilution of 10^−3 cell suspension for testing compounds. • The final C. albicans cell concentration for the test: 3.5×10^4 CFU/ml • 10. Plated 144 ul/well of the above dilution of cell on 96-well plates. Part-II: C. Albicans Growth Inhibition Testing with Compounds • 1. From 10 mM DMSO stock solutions, make serial dilutions of compounds to 0.13, 0.25, 0.40, 0.55, 0.75 and 1.0 mM solutions • 2. Add 6 ul each of diluted compound solutions per well in duplicates. The final concentrations were 0, 5, 10, 16, 22, 30 and 40 micromolar. • 3. Incubated all plates at 30 C for overnight (˜24 hours). • 4. Read absorbance at OD600 for each plate. • 5. Calculate the % inhibition of each compound against the DMSO treated cell.

[4] = test system: PC-3 prostate cancer cells; test: Example T: sensitisation of PC-3 cells to doxorubicin, oxaliplatin, paclitaxel or vincristine, Wst1; type: cell-based, human; conditions: PC-3 cells, 72 hours; for viability at 0.4 µM / viability at 2.5 µM: Homo sapiens, Wst1, vehicle = 100, read-out: No Chemo: percent cell survival; for viability at 0.4 µM: compound 0.4 μM alone; for Doxorubicin 3.5 μM: percent cell survival / Oxaliplatin 100 μM: percent cell survival / Paclitaxel 50 μM: percent cell survival / Vincristine 100 nM: percent cell survival: chemotherapy agent alone normalized to 100%; for viability at 2.5 µM: compound 2.5 μM alone
THP-1 cells = test: Example D: LPS-triggered THP-1 cell death assay, acute/5-hour and chronic/48-hour; type: cell-based, Human; conditions: for activity relative to AC in the LPS-triggered THP-1 cell death assay, in words: 0.1 μM, 5-hour and 48-hour time points; for Viable cell percent change, Chronic/48-hour, Mean: 10 ng/ml LPS, 0.1 μM test compound
Experimental: Compounds of the invention were tested at 0.1 μM versus AC in the LPS-triggered THP-1 cell death assay. Both acute/5-hour and chronic/48-hour phases of cell death were assessed. Compounds were screened in batches with DMSO as the negative control and AC as the high activity control.

[5] = compound 0.4 μM + doxorubicin 3.5 μM
[6] = compound 0.4 μM + oxaliplatin 100 μM
[7] = compound 0.4 μM + paclitaxel 50 μM
[8] = compound 0.4 μM + vincristine 100 nM
[9] = compound 2.5 μM + doxorubicin 3.5 μM
[10] = compound 2.5 μM + oxaliplatin 100 μM
[11] = compound 2.5 μM + paclitaxel 50 μM
[12] = compound 2.5 μM + vincristine 100 nM

In the case of `CCOCCCOCCCCCCCCNc1ccnc2ccccc12` [AJ, N-[8-(3-Ethoxypropoxy)octyl]quinolin-4-amine], the viability at 0.4 µM [1] is reported as 18.5%, the viability at 1 µM [2] is reported as 22.4% and the viability at 5 µM [2] is reported as 21.1%. For the same compound, the MIC [3] was 113 µM (≈ 40.7 µg/mL), the IC50 [3] was 43.2 µM and the viability at 0.4 µM [4] was 18.5%. For the same compound, the “Doxorubicin 3.5 μM: percent cell survival” value [4, 5] was 33.1%, the “Oxaliplatin 100 μM: percent cell survival” value [4, 6] was 22.5% and the “Paclitaxel 50 μM: percent cell survival” value [4, 7] was 20.8%. For the same compound, the “Vincristine 100 nM: percent cell survival” value [4, 8] was 20.1% and the “activity relative to AC in the LPS-triggered THP-1 cell death assay, in words” value (“activity relative to AC” for short) (THP-1 cells) was “equivalent activity to AC at both the 5-hour and 48-hour time points”.
With `c1ccc(OCCCCCCNc2ccnc3ccccc23)cc1` [AR, N-(6-Phenoxyhexyl)quinolin-4-amine] the viability at 0.4 µM [1] was 57%, the viability at 1 µM [2] was 25.4% and the viability at 5 µM [2] was 47%. For the same compound, the MIC [3] was 69.8 µM (≈ 22.4 µg/mL), the IC50 [3] was 46.1 µM and the viability at 0.4 µM [4] was 57%. The “Doxorubicin 3.5 μM: percent cell survival” value [4, 5] was 22.4%, the “Oxaliplatin 100 μM: percent cell survival” value [4, 6] was 24.1% and the “Paclitaxel 50 μM: percent cell survival” value [4, 7] was 54.1%. The “Vincristine 100 nM: percent cell survival” value [4, 8] was 24.2%, the “Viable cell percent change, Chronic/48-hour, Mean” value (“Viable cell percent change” for short) (THP-1 cells) was 28.75% and the “activity relative to AC” value (THP-1 cells) was “equivalent activity to AC at both the 5-hour and 48-hour time points”.
`CCCCCCOCCCOCCCCCNc1ccnc2ccccc12` [BB, N-{5-[3-(Hexyloxy)propoxy]pentyl}quinolin-4-amine] was tested, and the viability at 2.5 µM [1] was 16.3%, the viability at 1 µM [2] was 59.6% and the viability at 5 µM [2] was 41.1%. For the same compound, the MIC [3] was 99.7 µM (≈ 37.1 µg/mL), the IC50 [3] was 50.9 µM and the viability at 2.5 µM [4] was 16.3%. For the same compound, the “Doxorubicin 3.5 μM: percent cell survival” value [4, 9] was 20.4%, the “Oxaliplatin 100 μM: percent cell survival” value [4, 10] was 24.7% and the “Paclitaxel 50 μM: percent cell survival” value [4, 11] was 25%. For the same compound, the “Vincristine 100 nM: percent cell survival” value [4, 12] was 17.2% and the “Viable cell percent change” value (THP-1 cells) was 0.65%.
Work on `CCCCCCOCCCCCOCCCNc1ccnc2ccccc12` [BC, N-{3-[5-(Hexyloxy)pentyloxy]propyl}quinolin-4-amine] yielded a viability at 2.5 µM [1] of 26%, a viability at 1 µM [2] of 96.9% and a viability at 5 µM [2] of 47.2%. For the same compound, the MIC [3] was 108 µM (≈ 40.1 µg/mL), the IC50 [3] was 45.7 µM and the viability at 2.5 µM [4] was 26%. The “Doxorubicin 3.5 μM: percent cell survival” value [4, 9] was 32.6%, the “Oxaliplatin 100 μM: percent cell survival” value [4, 10] was 32.3% and the “Paclitaxel 50 μM: percent cell survival” value [4, 11] was 29.8%. The “Vincristine 100 nM: percent cell survival” value [4, 12] was 28.9% and the “Viable cell percent change” value (THP-1 cells) was 6.40%.
Work on `CCCOCCOCCCCCCCCNc1ccnc2ccccc12` [BD, N-[8-(2-Propoxyethoxy)octyl]quinolin-4-amine] yielded a viability at 0.4 µM [1] of 29.3%, a viability at 1 µM [2] of 25.5% and a viability at 5 µM [2] of 27.7%. It also gave an MIC [3] of 134 µM (≈ 48 µg/mL), an IC50 [3] of 37.5 µM and a viability at 0.4 µM [4] of 29.3%. For the same compound, the “Doxorubicin 3.5 μM: percent cell survival” value [4, 5] was 66.1%, the “Oxaliplatin 100 μM: percent cell survival” value [4, 6] was 61.3% and the “Paclitaxel 50 μM: percent cell survival” value [4, 7] was 28.4%. For the same compound, the “Vincristine 100 nM: percent cell survival” value [4, 8] was 33.3% and the “activity relative to AC” value (THP-1 cells) was “equivalent activity to AC at both the 5-hour and 48-hour time points”.
`COc1cccc(OCCCCCCCCNc2ccnc3ccccc23)c1` [BH, N-[8-(3-Methoxyphenoxy)octyl]quinolin-4-amine] showed a viability at 0.4 µM [1] of 98.5%, a viability at 1 µM [2] of 21% and a viability at 5 µM [2] of 19.3%. The MIC [3] was 30.1 µM (≈ 11.4 µg/mL), the IC50 [3] was 18.1 µM and the viability at 0.4 µM [4] was 98.5%. The “Doxorubicin 3.5 μM: percent cell survival” value [4, 5] was 35.7%, the “Oxaliplatin 100 μM: percent cell survival” value [4, 6] was 30.6% and the “Paclitaxel 50 μM: percent cell survival” value [4, 7] was 61%. The “Vincristine 100 nM: percent cell survival” value [4, 8] was 71.6%, the “Viable cell percent change” value (THP-1 cells) was 34.77% and the “activity relative to AC” value (THP-1 cells) was “equivalent activity to AC at both the 5-hour and 48-hour time points”.
With `CCCCOCCCCCCCCn1cnc2cnc3ccccc3c21` [BQ, 1-(8-Butoxyoctyl)-1H-imidazo[4,5-c]quinoline] the viability at 2.5 µM [1] was 21.4%, the IC50 [3] was 51.7 µM and the viability at 2.5 µM [4] was 21.4%. For the same compound, the “Doxorubicin 3.5 μM: percent cell survival” value [4, 9] was 48.5%, the “Oxaliplatin 100 μM: percent cell survival” value [4, 10] was 25.1% and the “Paclitaxel 50 μM: percent cell survival” value [4, 11] was 26.9%. For the same compound, the “Vincristine 100 nM: percent cell survival” value [4, 12] was 21.4% and the “Viable cell percent change” value (THP-1 cells) was 13.70%.

Source: patent US20250034139A1, “AMINE COMPOUNDS HAVING ANTI-INFLAMMATORY, ANTIFUNGAL, ANTIPARASITIC, AND ANTICANCER ACTIVITY” (PHARMA CINQ, LLC, priority 2013, published 2025)
